From ChEMBL document CHEMBL1136023, “Antifungal Sordarins. Part 4: synthesis and structure--activity relationships of 3',4'-fused alkyl-tetrahydrofuran derivatives” (2002) come the findings set out here.

Type in all cases: functional
In one assay the test system is Candida parapsilosis. The assay can be described thus: Minimal inhibitory effect against the Candida parapsilosis (2372E). Conditions: Lodderomyces parapsilosis.
The test system of assay [1] is Candida albicans. Put plainly: Minimal inhibitory effect against the Candida albicans (2005E).
The test system of another assay is Candida tropicalis. The assay can be described thus: Minimal inhibitory effect against the Candida tropicalis (2808E).
Assay [2] deals with Candida albicans. Put plainly: Minimal inhibitory effect against the Candida albicans (4711E).
For another assay, the system named is Nakaseomyces glabratus. The assay can be described thus: Minimal inhibitory effect against the Candida glabrata (2375E).
A further assay relates to Cryptococcus neoformans. Put plainly: Minimal inhibitory effect against the Cryptococcus neoformans (2867E).
In a further assay the test system is Kluyveromyces marxianus. Put plainly: Minimal inhibitory effect against the Candida pseudotropicalis (2371E).
The test system of a further assay is Aspergillus flavus. Put plainly: Minimal inhibitory effect against the Aspergillus flavus (C1150).

In brackets after ≈: the same amount, converted by molar mass.

By MIC is commonly meant the lowest concentration found to suppress growth. A higher MIC goes with a less susceptible organism. For the molecule `CC(C)C1=CC2CC3(C=O)[C@@H]4CC[C@@H](C)[C@H]4CC2(CO[C@H]2C[C@@H]4OC(C)(C)O[C@@H]4[C@@H](C)O2)C13C(=O)O` (stereo partly specified), the MIC in the assay on Candida parapsilosis is greater than 125 µg/mL; against Candida albicans [1] it was less than 0.001 µg/mL; in the assay on Candida tropicalis, 0.12 µg/mL (≈ 0.239 µM); in the assay on Candida albicans [2] it was 0.004 µg/mL (≈ 0.00796 µM); in the assay on Nakaseomyces glabratus it was 31 µg/mL (≈ 61.7 µM); in the assay with Cryptococcus neoformans it was 0.12 µg/mL (≈ 0.239 µM). In addition, the MIC against Kluyveromyces marxianus was 0.004 µg/mL (≈ 0.00796 µM); against Aspergillus flavus, greater than 125 µg/mL.

With `CC(C)C1=CC2CC3(C=O)[C@@H]4CC[C@@H](C)[C@H]4CC2(CO[C@H]2C[C@H]4[C@H](OCC4(C)C)[C@@H](C)O2)C13C(=O)O` (stereo partly specified), the MIC against Candida parapsilosis is greater than 125 µg/mL; in the assay with Candida albicans [1], less than 0.001 µg/mL; against Candida tropicalis, 0.06 µg/mL (≈ 0.12 µM); in the assay on Candida albicans [2] it was less than 0.001 µg/mL; in the assay with Nakaseomyces glabratus, 8 µg/mL (≈ 16 µM); against Cryptococcus neoformans it was 4 µg/mL (≈ 7.99 µM). Also, the MIC was less than 0.001 µg/mL in the assay with Kluyveromyces marxianus and greater than 125 µg/mL against Aspergillus flavus.

Consider `CC[C@H]1CO[C@H]2[C@@H]1C[C@H](OCC13C[C@@H]4[C@H](C)CC[C@H]4C4(C=O)CC1C=C(C(C)C)C34C(=O)O)O[C@@H]2C` (stereo partly specified), for which the MIC in the assay with Candida parapsilosis is 4 µg/mL (≈ 7.99 µM); in the assay with Candida albicans [1], less than 0.001 µg/mL; in the assay with Candida tropicalis it was less than 0.001 µg/mL; in the assay with Candida albicans [2], less than 0.001 µg/mL; in the assay on Nakaseomyces glabratus it was 0.5 µg/mL (≈ 0.999 µM); with Cryptococcus neoformans it was less than 0.25 µg/mL. Further, the minimal inhibitory concentration (MIC) against Kluyveromyces marxianus is less than 0.001 µg/mL; with Aspergillus flavus, 62 µg/mL (≈ 124 µM).

On to `CC[C@@H]1CO[C@H]2[C@@H]1C[C@H](OCC13C[C@@H]4[C@H](C)CC[C@H]4C4(C=O)CC1C=C(C(C)C)C34C(=O)O)O[C@@H]2C` (stereo partly specified), for which the MIC with Candida parapsilosis was greater than 125 µg/mL; against Candida albicans [1], less than 0.001 µg/mL; in the assay with Candida tropicalis, less than 0.001 µg/mL; in the assay on Candida albicans [2] it was less than 0.001 µg/mL; in the assay with Nakaseomyces glabratus, 4 µg/mL (≈ 7.99 µM); in the assay with Cryptococcus neoformans it was 1 µg/mL (≈ 2 µM). Also, the MIC is less than 0.001 µg/mL against Kluyveromyces marxianus and greater than 125 µg/mL in the assay with Aspergillus flavus.

`CC(C)C1=CC2CC3(C=O)[C@@H]4CC[C@@H](C)[C@H]4CC2(CO[C@H]2C[C@@H]4OC[C@@H](C)[C@@H]4[C@@H](C)O2)C13C(=O)O` (stereo partly specified): the MIC in the assay with Candida parapsilosis was greater than 125 µg/mL; against Candida albicans [1], less than 0.001 µg/mL; in the assay with Candida tropicalis, 0.008 µg/mL (≈ 0.0164 µM); in the assay with Candida albicans [2], less than 0.001 µg/mL; in the assay on Nakaseomyces glabratus, 8 µg/mL (≈ 16.4 µM); in the assay on Cryptococcus neoformans, 1 µg/mL (≈ 2.05 µM). The MIC with Kluyveromyces marxianus is less than 0.001 µg/mL; in the assay on Aspergillus flavus it was greater than 125 µg/mL.

On to `CC(C)C1=CC2CC3(C=O)[C@@H]4CC[C@@H](C)[C@H]4CC2(CO[C@H]2C[C@H]4[C@H](OC[C@H]4C(C)C)[C@@H](C)O2)C13C(=O)O` (stereo partly specified), for which the MIC with Candida parapsilosis was greater than 125 µg/mL; with Candida albicans [1], less than 0.001 µg/mL; in the assay on Candida tropicalis it was 2 µg/mL (≈ 3.89 µM); against Candida albicans [2], less than 0.001 µg/mL; in the assay on Nakaseomyces glabratus, 62 µg/mL (≈ 120 µM); against Cryptococcus neoformans, 4 µg/mL (≈ 7.77 µM). Besides, the MIC is less than 0.001 µg/mL against Kluyveromyces marxianus and greater than 125 µg/mL in the assay with Aspergillus flavus.

Take `CC(C)C1=CC2CC3(C=O)[C@@H]4CC[C@@H](C)[C@H]4CC2(CO[C@H]2C[C@H]4[C@H](OC[C@@H]4C)[C@@H](C)O2)C13C(=O)O` (stereo partly specified): the MIC is 2 µg/mL (≈ 4.11 µM) against Candida parapsilosis; less than 0.001 µg/mL with Candida albicans [1]; 0.008 µg/mL (≈ 0.0164 µM) in the assay with Candida tropicalis; less than 0.001 µg/mL in the assay with Candida albicans [2]; 0.5 µg/mL (≈ 1.03 µM) against Nakaseomyces glabratus; 0.25 µg/mL (≈ 0.514 µM) in the assay on Cryptococcus neoformans. Besides, the MIC with Kluyveromyces marxianus came out at 0.004 µg/mL (≈ 0.00822 µM); in the assay on Aspergillus flavus it was 62 µg/mL (≈ 127 µM).

Turning to `CC(C)C1=CC2CC3(C=O)[C@@H]4CC[C@@H](C)[C@H]4CC2(CO[C@H]2C[C@H]4[C@H](OC[C@H]4C)[C@@H](C)O2)C13C(=O)O` (stereo partly specified), the MIC is greater than 125 µg/mL against Candida parapsilosis; 0.001 µg/mL (≈ 0.00205 µM) with Candida albicans [1]; 0.004 µg/mL (≈ 0.00822 µM) in the assay with Candida tropicalis; less than 0.001 µg/mL in the assay with Candida albicans [2]; 4 µg/mL (≈ 8.22 µM) in the assay with Nakaseomyces glabratus; 4 µg/mL (≈ 8.22 µM) against Cryptococcus neoformans. For the same molecule, the MIC in the assay on Kluyveromyces marxianus is 0.001 µg/mL (≈ 0.00205 µM); with Aspergillus flavus, greater than 125 µg/mL.

With `CC(C)C1=CC2CC3(C=O)[C@@H]4CC[C@@H](C)[C@H]4CC2(CO[C@H]2C[C@H]4[C@H](OC[C@@H]4C(C)C)[C@@H](C)O2)C13C(=O)O` (stereo partly specified), the MIC in the assay with Candida parapsilosis was 16 µg/mL (≈ 31.1 µM); in the assay on Candida albicans [1], less than 0.001 µg/mL; in the assay with Candida tropicalis, 0.004 µg/mL (≈ 0.00777 µM); against Candida albicans [2] it was less than 0.001 µg/mL; in the assay on Nakaseomyces glabratus, 2 µg/mL (≈ 3.89 µM); in the assay on Cryptococcus neoformans, 0.25 µg/mL (≈ 0.486 µM). The MIC in the assay with Kluyveromyces marxianus is less than 0.001 µg/mL; against Aspergillus flavus it was greater than 125 µg/mL.

`CC(C)C1=CC2CC3(C=O)[C@@H]4CC[C@@H](C)[C@H]4CC2(CO[C@H]2C[C@@H]4OC[C@H](C)[C@@H]4[C@@H](C)O2)C13C(=O)O` (stereo partly specified): the minimum inhibitory concentration (MIC) in the assay with Candida parapsilosis was greater than 125 µg/mL; with Candida albicans [1], 0.001 µg/mL (≈ 0.00205 µM); in the assay on Candida tropicalis it was 0.03 µg/mL (≈ 0.0616 µM); against Candida albicans [2] it was 0.004 µg/mL (≈ 0.00822 µM); with Nakaseomyces glabratus it was 16 µg/mL (≈ 32.9 µM); in the assay with Cryptococcus neoformans it was 0.5 µg/mL (≈ 1.03 µM). In addition, the MIC against Kluyveromyces marxianus was less than 0.001 µg/mL; against Aspergillus flavus it was greater than 125 µg/mL.

On to `CC(C)C1=CC2CC3(C=O)[C@@H]4CC[C@@H](C)[C@H]4CC2(CO[C@@H]2O[C@H](C)[C@H]4OC[C@@H](C)C4[C@@H]2O)C13C(=O)O` (single isomer, unassigned), for which the MIC in the assay on Candida parapsilosis was 125 µg/mL (≈ 249 µM); against Candida albicans [1], 0.008 µg/mL (≈ 0.0159 µM); against Candida tropicalis, 0.5 µg/mL (≈ 0.995 µM); against Candida albicans [2], 0.25 µg/mL (≈ 0.497 µM); with Nakaseomyces glabratus, 62 µg/mL (≈ 123 µM); against Cryptococcus neoformans, 31 µg/mL (≈ 61.7 µM). Further, the MIC against Kluyveromyces marxianus is 0.25 µg/mL (≈ 0.497 µM); in the assay on Aspergillus flavus, greater than 125 µg/mL.

In the case of `CC[C@@H]1CO[C@H]2C1[C@H](O)[C@H](OCC13C[C@@H]4[C@H](C)CC[C@H]4C4(C=O)CC1C=C(C(C)C)C34C(=O)O)O[C@@H]2C` (single isomer, unassigned), the MIC is 125 µg/mL (≈ 242 µM) in the assay on Candida parapsilosis; 0.015 µg/mL (≈ 0.029 µM) in the assay on Candida albicans [1]; 0.25 µg/mL (≈ 0.484 µM) against Candida tropicalis; 0.12 µg/mL (≈ 0.232 µM) with Candida albicans [2]; 16 µg/mL (≈ 31 µM) with Nakaseomyces glabratus; less than 0.25 µg/mL with Cryptococcus neoformans. Moreover, the figures for the MIC against Kluyveromyces marxianus and against Aspergillus flavus were 0.06 µg/mL (≈ 0.116 µM) and greater than 125 µg/mL, respectively.

Regarding `CC[C@H]1CO[C@H]2C1[C@H](O)[C@H](OCC13C[C@@H]4[C@H](C)CC[C@H]4C4(C=O)CC1C=C(C(C)C)C34C(=O)O)O[C@@H]2C` (single isomer, unassigned), the MIC in the assay with Candida parapsilosis was 125 µg/mL (≈ 242 µM); against Candida albicans [1], 0.03 µg/mL (≈ 0.0581 µM); against Candida tropicalis, 0.5 µg/mL (≈ 0.968 µM); in the assay with Candida albicans [2], 0.12 µg/mL (≈ 0.232 µM); in the assay with Nakaseomyces glabratus, 8 µg/mL (≈ 15.5 µM); against Cryptococcus neoformans, less than 0.25 µg/mL. Also, the MIC with Kluyveromyces marxianus was 0.06 µg/mL (≈ 0.116 µM); against Aspergillus flavus, greater than 125 µg/mL.

On to `CC(C)C1=CC2CC3(C=O)[C@@H]4CC[C@@H](C)[C@H]4CC2(CO[C@@H]2O[C@H](C)[C@H]4OC[C@H](C)C4[C@@H]2O)C13C(=O)O` (single isomer, unassigned), for which the MIC in the assay with Candida parapsilosis came out at 125 µg/mL (≈ 249 µM); in the assay on Candida albicans [1] it was 0.5 µg/mL (≈ 0.995 µM); in the assay on Candida tropicalis, 2 µg/mL (≈ 3.98 µM); against Candida albicans [2] it was 1 µg/mL (≈ 1.99 µM); in the assay with Nakaseomyces glabratus, 31 µg/mL (≈ 61.7 µM); with Cryptococcus neoformans, 1 µg/mL (≈ 1.99 µM). Further, the figures for the MIC in the assay on Kluyveromyces marxianus and against Aspergillus flavus were 1 µg/mL (≈ 1.99 µM) and greater than 125 µg/mL, respectively.

As to `OC(Cn1cncn1)(Cn1cncn1)c1ccc(F)cc1F` [FLUCONAZOLE], the MIC was found to be 0.5 µg/mL (≈ 1.63 µM) in the assay with Candida parapsilosis, 2 µg/mL (≈ 6.53 µM) with Candida tropicalis, 0.12 µg/mL (≈ 0.392 µM) in the assay on Candida albicans [2] and 4 µg/mL (≈ 13.1 µM) against Nakaseomyces glabratus.
